Here are results for one substance from PMC7357011, “Adenosine-5′-Phosphosulfate- and Sulfite Reductases Activities of Sulfate-Reducing Bacteria from Various Environments” (Biomolecules, 2020).

Test [1] addresses T1, APS reductase (D. desulfuricans DSM642) (Desulfovibrio desulfuricans, UniProt Q9L767).
T1 construct: gene aprB; native enzyme in crude cell-free extract, not purified; with Adenylylsulfate reductase subunit beta
T1 sequence (Q9L767 1-662): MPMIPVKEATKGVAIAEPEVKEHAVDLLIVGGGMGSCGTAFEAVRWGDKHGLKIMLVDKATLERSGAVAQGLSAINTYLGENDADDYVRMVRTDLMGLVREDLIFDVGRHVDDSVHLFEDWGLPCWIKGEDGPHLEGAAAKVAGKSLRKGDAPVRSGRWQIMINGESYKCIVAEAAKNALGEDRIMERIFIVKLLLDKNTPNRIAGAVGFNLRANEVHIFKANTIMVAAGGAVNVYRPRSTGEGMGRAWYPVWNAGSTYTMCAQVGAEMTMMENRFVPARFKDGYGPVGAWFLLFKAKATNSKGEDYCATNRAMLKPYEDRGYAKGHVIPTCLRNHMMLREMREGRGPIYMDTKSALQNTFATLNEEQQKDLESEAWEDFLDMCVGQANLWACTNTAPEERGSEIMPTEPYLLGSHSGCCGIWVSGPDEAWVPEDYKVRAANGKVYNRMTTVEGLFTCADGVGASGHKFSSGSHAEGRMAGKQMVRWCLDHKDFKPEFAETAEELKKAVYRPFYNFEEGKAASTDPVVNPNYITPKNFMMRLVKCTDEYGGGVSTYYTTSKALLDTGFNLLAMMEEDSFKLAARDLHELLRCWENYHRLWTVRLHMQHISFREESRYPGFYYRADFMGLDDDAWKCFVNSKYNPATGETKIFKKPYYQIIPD
T1 sequence (Q9L768 1-162 partner): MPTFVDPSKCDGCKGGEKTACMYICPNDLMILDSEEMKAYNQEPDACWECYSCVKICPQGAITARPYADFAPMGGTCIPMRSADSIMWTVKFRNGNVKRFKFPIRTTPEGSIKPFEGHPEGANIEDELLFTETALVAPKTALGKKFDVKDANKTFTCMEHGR
Put plainly: AMP-dependent ferricyanide reduction at […] nm, Lineweaver-Burk. Format: cell-based. The conditions noted are these: reverse direction, EDTA, Tris-HCl pH 7.5, 27 °C, varied substrate sulfite (methods).

The subject of test [2] is T2, sulfite reductase (Desulfovibrio sp. TC2).
T2 construct: gene dsrA; native enzyme in crude cell-free extract, not purified; NADH-oxidation read-out
Put plainly: NADH oxidation at […] nm, Lineweaver-Burk. Format: cell-based. Conditions: 0.2 mmol/L NADH, EDTA; Tris-HCl pH 7.5 (started with HCl); 27 °C.

The subject of test [3] is T3, sulfite reductase (Desulfotomaculum sp. TC3).
T3 construct: gene dsrA; native enzyme in crude cell-free extract, not purified; NADH-oxidation read-out
Put plainly: NADH oxidation at […] nm, Lineweaver-Burk. The format is biochemical. The conditions noted are these: 0.2 mmol/L NADH, EDTA; Tris-HCl pH 7.5 (started with HCl); 27 °C.

The subject of test [4] is T4, APS reductase (Desulfotomaculum sp. TC3).
T4 construct: gene aprA; native enzyme in crude cell-free extract, not purified; with Adenylylsulfate reductase subunit beta
Kind of test: AMP-dependent ferricyanide reduction at […] nm, Lineweaver-Burk. Format: cell-based. The conditions noted are these: reverse direction, EDTA, Tris-HCl pH 7.5, 27 °C, varied substrate sulfite (methods).

The subject of test [5] is T5, sulfite reductase (D. piger Vib-7).
T5 construct: gene dsrA; native enzyme in crude cell-free extract, not purified; NADH-oxidation read-out
Put plainly: NADH oxidation at […] nm, Lineweaver-Burk. The format is cell-based, Desulfovibrio piger. Conditions: 0.2 mmol/L NADH, EDTA; Tris-HCl pH 8.0 (started with HCl); 35 °C.

Test [6] relates to T6, APS reductase (Desulfovibrio sp. TC2).
T6 construct: gene aprA; native enzyme in crude cell-free extract, not purified; with Adenylylsulfate reductase subunit beta
Put plainly: AMP-dependent ferricyanide reduction at […] nm, Lineweaver-Burk. Conditions: reverse direction, EDTA, Tris-HCl pH 7.5, 27 °C, varied substrate sulfite (methods). The format is cell-based.

Test [7] concerns T7, APS reductase (Desulfomicrobium sp. TC4).
T7 construct: gene aprA; native enzyme in crude cell-free extract, not purified; with Adenylylsulfate reductase subunit beta
The test is described as above. Format: cell-based. Conditions: reverse direction, EDTA, Tris-HCl pH 7.5, 27 °C, varied substrate sulfite (methods).

Test [8] deals with T8, sulfite reductase (D. vulgaris DSM644).
T8 construct: gene dsrA; native enzyme in crude cell-free extract, not purified; NADH-oxidation read-out
Kind of test: NADH oxidation at […] nm, Lineweaver-Burk. The format is biochemical, Nitratidesulfovibrio vulgaris. The conditions noted are these: 0.2 mmol/L NADH, EDTA; Tris-HCl pH 7.5 (started with HCl); 27 °C.

The target of test [9] is T9, sulfite reductase (D. orale Rod-9) (Desulfomicrobium orale, UniProt A0A109W607+A0A109W618).
T9 construct: gene AXF15_07380; native enzyme in crude cell-free extract, not purified; NADH-oxidation read-out
Kind of test: NADH oxidation at […] nm, Lineweaver-Burk. Format: cell-based. The conditions noted are these: 0.2 mmol/L NADH, EDTA; Tris-HCl pH 8.0 (started with HCl); 35 °C.

The subject of test [10] is T10, sulfite reductase (D. desulfuricans DSM642).
T10 construct: gene dsrA; native enzyme in crude cell-free extract, not purified; NADH-oxidation read-out
Put plainly: NADH oxidation at […] nm, Lineweaver-Burk. The conditions noted are these: 0.2 mmol/L NADH, EDTA; Tris-HCl pH 7.5 (started with HCl); 27 °C. Format: cell-based, Desulfovibrio desulfuricans.

The test system of test [11] is T11, sulfite reductase (Desulfovibrio sp. 10).
T11 construct: gene dsrA; native enzyme in crude cell-free extract, not purified; NADH-oxidation read-out
Put plainly: NADH oxidation at […] nm, Lineweaver-Burk. Format: biochemical. Conditions: 0.2 mmol/L NADH, EDTA; Tris-HCl pH 7.5 (started with HCl); 27 °C.

In test [12] the test system is T12, sulfite reductase (Desulfomicrobium sp. TC4).
T12 construct: gene dsrA; native enzyme in crude cell-free extract, not purified; NADH-oxidation read-out
Kind of test: NADH oxidation at […] nm, Lineweaver-Burk. Format: cell-based. Conditions: 0.2 mmol/L NADH, EDTA; Tris-HCl pH 7.5 (started with HCl); 27 °C.

T9 sequence (A0A109W618 1-437): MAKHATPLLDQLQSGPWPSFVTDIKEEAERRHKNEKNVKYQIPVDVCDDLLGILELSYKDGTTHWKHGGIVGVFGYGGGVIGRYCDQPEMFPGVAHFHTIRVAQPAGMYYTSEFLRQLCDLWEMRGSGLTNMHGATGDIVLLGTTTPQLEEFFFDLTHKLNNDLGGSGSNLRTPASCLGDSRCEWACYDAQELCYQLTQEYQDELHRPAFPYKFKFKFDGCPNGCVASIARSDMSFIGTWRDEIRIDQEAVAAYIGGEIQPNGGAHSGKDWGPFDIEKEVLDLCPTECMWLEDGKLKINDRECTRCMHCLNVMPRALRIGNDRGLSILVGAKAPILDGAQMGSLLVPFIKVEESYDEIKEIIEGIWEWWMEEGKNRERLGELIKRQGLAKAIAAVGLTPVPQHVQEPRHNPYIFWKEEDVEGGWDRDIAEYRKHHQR
T9 sequence (A0A109W607 1-386): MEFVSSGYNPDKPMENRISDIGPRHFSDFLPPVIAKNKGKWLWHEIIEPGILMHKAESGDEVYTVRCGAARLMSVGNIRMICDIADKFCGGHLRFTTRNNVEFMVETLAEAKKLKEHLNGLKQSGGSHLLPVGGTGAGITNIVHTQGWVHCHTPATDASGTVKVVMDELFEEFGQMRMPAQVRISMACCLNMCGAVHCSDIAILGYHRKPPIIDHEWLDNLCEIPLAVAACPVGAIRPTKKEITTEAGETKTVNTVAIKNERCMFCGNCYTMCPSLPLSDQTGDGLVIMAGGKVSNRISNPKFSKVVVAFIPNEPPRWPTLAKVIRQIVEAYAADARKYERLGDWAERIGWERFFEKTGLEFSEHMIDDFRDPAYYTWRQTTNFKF

As to sulfite, the Km in [1] turned out to be 2.12 mM; in test [2], 26.1 mM; in test [3], 46.2 mM; in test [4], 1.49 mM; in test [5] it was 3.53 mM; in test [6], 1.59 mM. For the same substance, the Km turned out to be 1.1 mM in test [7]; 31.7 mM in test [8]; 3.86 mM in test [9]; 9.97 mM in test [10]; 46.7 mM in test [11]; 19.4 mM in [12].

The term Km denotes the concentration of substrate that gives half-maximal velocity.
